Source: patent US20240391931A1 (Bristol-Myers Squibb Company, priority 2021, published 2024)

Columns and labels:
EGFR = EGFR (Homo sapiens, UniProt P00533); test: EGFR signaling (pEGFR Tyr1068/total EGFR MSD) in A431 cells; type: cell-based; parameters: endogenous in cells; host or cells: A431, N87; conditions: for EC50: A431 cells, read-out: A431 pEGFR EC50; for Selectivity A431 EC50/BT474 EC50: ratio A431 pEGFR EC50 to BT474 pHER2 EC50; for Selectivity A431 EC50/HEKYVMA EC50: ratio A431 pEGFR EC50 to HEK YVMA pHER2 EC50
EGFR, sequence (P00533 25-1210): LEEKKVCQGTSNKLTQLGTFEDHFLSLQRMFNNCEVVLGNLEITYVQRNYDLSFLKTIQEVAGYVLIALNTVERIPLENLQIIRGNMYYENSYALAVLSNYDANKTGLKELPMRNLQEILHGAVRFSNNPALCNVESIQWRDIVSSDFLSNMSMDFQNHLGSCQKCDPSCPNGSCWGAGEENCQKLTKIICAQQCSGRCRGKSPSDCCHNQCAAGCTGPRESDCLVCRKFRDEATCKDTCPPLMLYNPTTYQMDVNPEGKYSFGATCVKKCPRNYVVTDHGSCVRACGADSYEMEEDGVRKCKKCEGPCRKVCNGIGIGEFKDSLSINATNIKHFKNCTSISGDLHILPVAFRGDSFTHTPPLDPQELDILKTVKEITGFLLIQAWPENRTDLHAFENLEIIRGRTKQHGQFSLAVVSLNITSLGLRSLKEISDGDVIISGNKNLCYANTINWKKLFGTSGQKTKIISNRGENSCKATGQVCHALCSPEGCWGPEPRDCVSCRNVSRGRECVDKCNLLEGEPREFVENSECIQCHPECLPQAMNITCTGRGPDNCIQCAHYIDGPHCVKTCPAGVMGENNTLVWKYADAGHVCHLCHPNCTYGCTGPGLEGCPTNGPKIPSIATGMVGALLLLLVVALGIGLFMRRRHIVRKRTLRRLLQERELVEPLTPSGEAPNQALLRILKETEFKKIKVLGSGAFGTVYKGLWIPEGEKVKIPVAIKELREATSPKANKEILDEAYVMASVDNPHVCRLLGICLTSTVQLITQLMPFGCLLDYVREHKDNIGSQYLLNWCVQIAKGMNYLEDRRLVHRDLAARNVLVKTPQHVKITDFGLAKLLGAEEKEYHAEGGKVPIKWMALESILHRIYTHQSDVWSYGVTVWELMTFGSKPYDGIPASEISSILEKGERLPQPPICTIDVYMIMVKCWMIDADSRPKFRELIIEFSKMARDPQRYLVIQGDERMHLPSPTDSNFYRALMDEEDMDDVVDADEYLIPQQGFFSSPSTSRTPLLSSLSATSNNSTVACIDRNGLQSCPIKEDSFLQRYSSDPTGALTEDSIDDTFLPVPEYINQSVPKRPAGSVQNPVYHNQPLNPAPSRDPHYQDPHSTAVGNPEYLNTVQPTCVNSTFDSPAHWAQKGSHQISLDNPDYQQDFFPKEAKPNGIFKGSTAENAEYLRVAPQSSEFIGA
Procedure, shortened: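 Serum-starved A431 cells were pretreated 1.5 h in 1% FBS with compound (0.005–10 μM, 0.1% DMSO), then stimulated with 100 ng/mL human EGF for 10 min. Lysate pEGFR Tyr1068 was measured by MSD and normalized to total EGFR as % DMSO control; EC50 from variable-slope sigmoidal fit.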

HER2 WT = biological target: T1, HER2 WT (Homo sapiens, UniProt P04626); test: Enzymatic assay HER2 WT (method a); type: biochemical; conditions: [HER2 WT]=12.5 nM, [ATP]=25 μM, [Peptide 22]=1 μM
T1 construct: purchased ProQinase, Freiburg, Germany ERBB2 0108-0000-1
T1 sequence (P04626 23-1255): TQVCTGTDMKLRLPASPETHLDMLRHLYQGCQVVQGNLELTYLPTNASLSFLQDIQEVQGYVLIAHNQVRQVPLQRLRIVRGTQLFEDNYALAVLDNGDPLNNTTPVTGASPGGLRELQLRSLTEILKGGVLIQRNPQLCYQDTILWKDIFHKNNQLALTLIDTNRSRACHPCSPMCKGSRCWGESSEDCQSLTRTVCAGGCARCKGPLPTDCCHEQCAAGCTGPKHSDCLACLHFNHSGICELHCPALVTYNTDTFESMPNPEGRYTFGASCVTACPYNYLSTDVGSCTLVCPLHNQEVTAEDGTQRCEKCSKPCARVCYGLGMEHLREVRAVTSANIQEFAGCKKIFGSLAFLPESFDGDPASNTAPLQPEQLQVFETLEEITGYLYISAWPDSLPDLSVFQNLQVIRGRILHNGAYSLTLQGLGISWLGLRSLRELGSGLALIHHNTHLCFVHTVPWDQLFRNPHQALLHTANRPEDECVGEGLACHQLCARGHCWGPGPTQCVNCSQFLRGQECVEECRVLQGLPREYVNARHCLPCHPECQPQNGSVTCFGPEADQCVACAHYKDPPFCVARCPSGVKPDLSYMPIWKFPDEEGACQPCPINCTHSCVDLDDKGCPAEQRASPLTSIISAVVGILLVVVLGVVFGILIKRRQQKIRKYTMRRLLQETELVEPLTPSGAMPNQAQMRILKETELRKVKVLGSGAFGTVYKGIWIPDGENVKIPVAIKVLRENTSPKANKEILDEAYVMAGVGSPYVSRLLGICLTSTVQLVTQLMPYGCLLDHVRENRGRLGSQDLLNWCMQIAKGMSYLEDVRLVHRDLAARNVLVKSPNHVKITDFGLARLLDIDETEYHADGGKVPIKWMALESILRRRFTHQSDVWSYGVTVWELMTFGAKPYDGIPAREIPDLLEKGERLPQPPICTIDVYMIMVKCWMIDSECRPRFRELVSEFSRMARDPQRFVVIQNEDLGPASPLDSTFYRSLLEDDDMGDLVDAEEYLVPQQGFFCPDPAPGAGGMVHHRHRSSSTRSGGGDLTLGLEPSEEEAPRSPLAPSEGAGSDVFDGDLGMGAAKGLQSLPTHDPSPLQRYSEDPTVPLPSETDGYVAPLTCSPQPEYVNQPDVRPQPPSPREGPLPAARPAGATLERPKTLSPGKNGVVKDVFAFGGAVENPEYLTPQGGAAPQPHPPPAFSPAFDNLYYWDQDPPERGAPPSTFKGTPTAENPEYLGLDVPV
Procedure, shortened: (§1)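 Microfluidic mobility-shift kinase assay with Peptide 22 (1 μM) in HEPES pH 7.5, MnCl2, MgCl2, Tween 20, TCEP. HER2 WT 12.5 nM and HER2 YVMA 5 nM each used 25 μM ATP; EGFR WT 2 nM used 1 mM ATP. IC50 came from initial-velocity (0–3600 s) percent inhibition, fitted to a variable-slope model.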

HER2YVMA = HER2YVMA (Homo sapiens, UniProt P04626, INS775YVMA); test: Enzymatic assay HER2YVMA (method b); type: biochemical; parameters: purchased Viva biotech, Shanghai, China custom purification; conditions: [HER2YVMA]=5 nM, [ATP]=25 μM, [Peptide 22]=1 μM
HER2YVMA, sequence (P04626 with tags, fused parts or gaps INS775YVMA): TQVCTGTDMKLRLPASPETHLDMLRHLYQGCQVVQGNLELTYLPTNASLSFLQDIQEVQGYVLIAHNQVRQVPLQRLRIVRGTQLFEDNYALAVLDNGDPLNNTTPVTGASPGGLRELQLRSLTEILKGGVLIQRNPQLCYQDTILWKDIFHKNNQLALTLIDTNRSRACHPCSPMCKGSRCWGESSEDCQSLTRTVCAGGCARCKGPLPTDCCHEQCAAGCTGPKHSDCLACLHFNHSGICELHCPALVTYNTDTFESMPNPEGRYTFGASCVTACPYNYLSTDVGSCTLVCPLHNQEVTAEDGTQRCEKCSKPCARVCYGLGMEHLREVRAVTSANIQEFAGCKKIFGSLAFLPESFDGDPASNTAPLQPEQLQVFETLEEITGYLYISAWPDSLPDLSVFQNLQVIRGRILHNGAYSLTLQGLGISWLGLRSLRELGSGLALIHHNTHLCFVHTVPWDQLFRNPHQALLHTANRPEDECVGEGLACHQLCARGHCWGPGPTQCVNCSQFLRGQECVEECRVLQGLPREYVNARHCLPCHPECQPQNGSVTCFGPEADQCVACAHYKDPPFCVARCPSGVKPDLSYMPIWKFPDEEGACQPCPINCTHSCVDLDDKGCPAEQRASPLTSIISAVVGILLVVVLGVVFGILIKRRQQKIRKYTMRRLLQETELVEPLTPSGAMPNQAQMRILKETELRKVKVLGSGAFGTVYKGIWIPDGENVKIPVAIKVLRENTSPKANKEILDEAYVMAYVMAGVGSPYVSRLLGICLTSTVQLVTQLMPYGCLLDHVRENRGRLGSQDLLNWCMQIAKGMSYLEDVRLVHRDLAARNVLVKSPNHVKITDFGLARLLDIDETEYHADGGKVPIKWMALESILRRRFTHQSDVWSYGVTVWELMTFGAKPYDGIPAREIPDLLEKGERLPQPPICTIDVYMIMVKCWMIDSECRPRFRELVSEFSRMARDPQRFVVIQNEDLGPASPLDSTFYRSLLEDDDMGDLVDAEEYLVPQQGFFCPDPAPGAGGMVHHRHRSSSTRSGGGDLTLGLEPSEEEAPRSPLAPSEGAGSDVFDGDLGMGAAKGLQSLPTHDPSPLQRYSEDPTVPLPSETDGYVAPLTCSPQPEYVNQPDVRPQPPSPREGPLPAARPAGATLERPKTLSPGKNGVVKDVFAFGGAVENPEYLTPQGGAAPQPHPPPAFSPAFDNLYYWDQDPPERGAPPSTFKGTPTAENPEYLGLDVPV
Procedure, shortened: as §1

Row | SMILES | EC50 (EGFR) [nM] | Selectivity A431 EC50/BT474 EC50 (EGFR) | Selectivity A431 EC50/HEKYVMA EC50 (EGFR) | IC50 (HER2 WT) [nM] | IC50 (HER2YVMA) [nM]
1 | CC(=O)N1CCN(C/C=C/C(=O)N2CCc3c(sc4ncnc(Nc5ccc(Oc6ccc(C)nc6)c(C)c5)c34)C2)CC1 [Compound 51] | 1000 to 10000 | C (C: ≥ 10 and < 20) | E (E: >1 and < 5) | < 100 | 100 to 1000
2 | Cc1ccc(Oc2ccc(Nc3ncnc4sc5c(c34)CCN(C(=O)/C=C/CNCc3ccsc3)C5)cc2C)cn1 [Compound 52] | < 100 | D (D: ≥ 5 and < 10) | C (C: ≥ 10 and < 20) | < 100 | < 100
3 | Cc1ccc(Oc2ccc(Nc3ncnc4sc5c(c34)CCN(C(=O)/C=C/CN3CC(O)C3)C5)cc2C)cn1 [Compound 53] | 1000 to 10000 | C (C: ≥ 10 and < 20) | D (D: ≥ 5 and < 10) | < 100 | < 100
4 | Cc1ccc(Oc2ccc(Nc3ncnc4sc5c(c34)CCN(C(=O)/C=C/CNC3CCC3)C5)cc2C)cn1 [Compound 54] | 100 to 1000 | D (D: ≥ 5 and < 10) | D (D: ≥ 5 and < 10) | < 100 | < 100
5 | Cc1ccc(Oc2ccc(Nc3ncnc4sc5c(c34)CCN(C(=O)/C=C/CN3CC=CCC3)C5)cc2C)cn1 [Compound 55] | 100 to 1000 | B (B: ≥ 20 and < 100) | B (B: ≥ 20 and < 100) | < 100 | < 100
6 | CON(C)C/C=C/C(=O)N1CCc2c(sc3ncnc(Nc4ccc(Oc5ccc(C)nc5)c(C)c4)c23)C1 [Compound 56] | 1000 to 10000 | C (C: ≥ 10 and < 20) | B (B: ≥ 20 and < 100) | 100 to 1000 | 100 to 1000
7 | Cc1ccc(Oc2ccc(Nc3ncnc4sc5c(c34)CCN(C(=O)/C=C/CN3CC4(C3)CS(=O)(=O)C4)C5)cc2C)cn1 [Compound 57] | < 100 | D (D: ≥ 5 and < 10) | D (D: ≥ 5 and < 10) | < 100 | < 100
8 | Cc1ccc(Oc2ccc(Nc3ncnc4sc5c(c34)CCN(C(=O)/C=C/CN3CCN4C(=O)CCC4C3)C5)cc2C)cn1 (centres unmarked) [Compound 58] | 1000 to 10000 | C (C: ≥ 10 and < 20) | D (D: ≥ 5 and < 10) | 100 to 1000 | 100 to 1000
9 | COCCN1CCN(C/C=C/C(=O)N2CCc3c(sc4ncnc(Nc5ccc(Oc6ccc(C)nc6)c(C)c5)c34)C2)CC1 [Compound 59] | 100 to 1000 | B (B: ≥ 20 and < 100) | C (C: ≥ 10 and < 20) | < 100 | 100 to 1000
10 | Cc1ccc(Oc2ccc(Nc3ncnc4sc5c(c34)CCN(C(=O)/C=C/CN3CCn4cc(C(F)(F)F)nc4C3)C5)cc2C)cn1 [Compound 61] | > 10000 | B (B: ≥ 20 and < 100) | C (C: ≥ 10 and < 20) | 1000 to 10000 | 1000 to 10000
11 | Cc1ccc(Oc2ccc(Nc3ncnc4sc5c(c34)CCN(C(=O)/C=C/CN3CCC(n4ccnc4)CC3)C5)cc2C)cn1 [Compound 62] | 100 to 1000 | B (B: ≥ 20 and < 100) | E (E: >1 and < 5) | < 100 | < 100
12 | Cc1cc(Nc2ncnc3sc4c(c23)CCN(C(=O)/C=C/CN(C)C)C4)ccc1Oc1cccc(B(O)O)c1 [Compound 64, (E)-(3-(4-((7-(4-(dimethylamino)but-2-enoyl)-5,6,7,8-tetrahydropyrido[4′,3′:4,5]thieno[2,3-d]pyrimidin-4-yl)amino)-2-methylphenoxy)phenyl)boronic acid] | 100 to 1000 | C (C: ≥ 10 and < 20) | E (E: >1 and < 5) | < 100 | < 100
13 | Cc1ccc(Oc2ccc(Nc3ncnc4sc5c(c34)CCN(C(=O)/C=C/CNCCO)C5)cc2C)cn1 [Compound 65] | 100 to 1000 | D (D: ≥ 5 and < 10) | E (E: >1 and < 5) | < 100 | < 100
14 | Cc1ccc(Oc2ccc(Nc3ncnc4sc5c(c34)CCN(C(=O)/C=C/CN3C[C@H]4CC[C@@H](C3)O4)C5)cc2C)cn1 [Compound 66] | 100 to 1000 | C (C: ≥ 10 and < 20) | C (C: ≥ 10 and < 20) | < 100 | < 100
15 | Cc1ccc(Oc2ccc(Nc3ncnc4sc5c(c34)CCN(C(=O)/C=C/CN3CCC4(CCOC4)C3)C5)cc2C)cn1 (centres unmarked) [Compound 67] | < 100 | D (D: ≥ 5 and < 10) | D (D: ≥ 5 and < 10) | < 100 | < 100
16 | Cc1ccc(Oc2ccc(Nc3ncnc4sc5c(c34)CCN(C(=O)/C=C/CN[C@H]3CC[C@H](OC4CC4)CC3)C5)cc2C)cn1 [Compound 68] | < 100 | D (D: ≥ 5 and < 10) | E (E: >1 and < 5) | < 100 | < 100
17 | Cc1ccc(Oc2ccc(Nc3ncnc4sc5c(c34)CCN(C(=O)/C=C/CN[C@H]3CC[C@H](OC(F)F)CC3)C5)cc2C)cn1 [Compound 69] | < 100 | A (A: ≥100) | D (D: ≥ 5 and < 10) | < 100 | < 100
18 | Cc1ccc(Oc2ccc(Nc3ncnc4sc5c(c34)CCN(C(=O)/C=C/CN[C@H]3CC[C@H](OCC(F)(F)F)CC3)C5)cc2C)cn1 [Compound 70] | < 100 | D (D: ≥ 5 and < 10) | E (E: >1 and < 5) | < 100 | < 100
19 | Cc1ccc(Oc2ccc(Nc3ncnc4sc5c(c34)CCN(C(=O)/C=C/CNC3CCC(C(=O)N(C)C)CC3)C5)cc2C)cn1 (centres unmarked) [Compound 71] | < 100 | A (A: ≥100) | E (E: >1 and < 5) | < 100 | < 100
20 | Cc1ccc(Oc2ccc(Nc3ncnc4sc5c(c34)CCN(C(=O)/C=C/CNC34CCC(C#N)(CC3)CC4)C5)cc2C)cn1 [Compound 72] | < 100 | D (D: ≥ 5 and < 10) | E (E: >1 and < 5) | < 100 | < 100
21 | Cc1ccc(Oc2ccc(Nc3ncnc4sc5c(c34)CCN(C(=O)/C=C/CN[C@H]3CCC[C@H](O)C3)C5)cc2C)cn1 [Compound 73] | 100 to 1000 | D (D: ≥ 5 and < 10) | E (E: >1 and < 5) | < 100 | < 100
22 | Cc1ccc(Oc2ccc(Nc3ncnc4sc5c(c34)CCN(C(=O)/C=C/CN3CCC(O)C3)C5)cc2C)cn1 (centres unmarked) [Compound 74] | 100 to 1000 | D (D: ≥ 5 and < 10) | D (D: ≥ 5 and < 10) | < 100 | < 100
23 | Cc1ccc(Oc2ccc(Nc3ncnc4sc5c(c34)CCN(C(=O)/C=C/CN[C@@H](C)CO)C5)cc2C)cn1 [Compound 75] | < 100 | D (D: ≥ 5 and < 10) | D (D: ≥ 5 and < 10) | < 100 | < 100
24 | Cc1ccc(Oc2ccc(Nc3ncnc4sc5c(c34)CCN(C(=O)/C=C/CN3CC4CC4C3)C5)cc2C)cn1 (centres unmarked) [Compound 76] | < 100 | C (C: ≥ 10 and < 20) | C (C: ≥ 10 and < 20) | < 100 | < 100
25 | Cc1cc(Nc2ncnc3sc4c(c23)CCN(C(=O)/C=C/CN2CC3CC2CO3)C4)ccc1Oc1ccc2ncnn2c1 (centres unmarked) [Compound 77] | 1000 to 10000 | B (B: ≥ 20 and < 100) | D (D: ≥ 5 and < 10) | 100 to 1000 | 100 to 1000
26 | Cc1cc(Nc2ncnc3sc4c(c23)CCN(C(=O)/C=C/CN(C)C(C)(C)C)C4)ccc1Oc1ccc2ncnn2c1 [Compound 80] | 100 to 1000 | B (B: ≥ 20 and < 100) | B (B: ≥ 20 and < 100) | < 100 | < 100
27 | Cc1cc(Nc2ncnc3sc4c(c23)CCN(C(=O)/C=C/CN2CC3C(CO)C3C2)C4)ccc1Oc1ccc2ncnn2c1 (centres unmarked) [Compound 81] | 100 to 1000 | B (B: ≥ 20 and < 100) | C (C: ≥ 10 and < 20) | < 100 | < 100
28 | Cc1cc(Nc2ncnc3sc4c(c23)CCN(C(=O)/C=C/CN2CC3CC(C3)C2)C4)ccc1Oc1ccc2ncnn2c1 [Compound 82] | 100 to 1000 | C (C: ≥ 10 and < 20) | C (C: ≥ 10 and < 20) | < 100 | < 100
